Structures can show the parent of a compound that is named as a salt.
Target: T1, Bradykinin receptor (Cavia porcellus, UniProt O70526)
T1 construct: from tissue; host or cells: guinea pig ileum, crude membrane preparation
T1 sequence (O70526 1-372): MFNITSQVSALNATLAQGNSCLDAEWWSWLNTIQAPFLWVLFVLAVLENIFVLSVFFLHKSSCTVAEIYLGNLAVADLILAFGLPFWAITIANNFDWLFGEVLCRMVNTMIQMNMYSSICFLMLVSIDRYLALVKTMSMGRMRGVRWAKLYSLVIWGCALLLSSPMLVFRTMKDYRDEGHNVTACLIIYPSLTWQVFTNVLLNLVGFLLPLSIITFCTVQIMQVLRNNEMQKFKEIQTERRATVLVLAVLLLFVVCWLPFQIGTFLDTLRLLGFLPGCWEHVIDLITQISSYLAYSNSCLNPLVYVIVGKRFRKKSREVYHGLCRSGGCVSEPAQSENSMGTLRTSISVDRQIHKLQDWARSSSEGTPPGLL
Assay: 3H-Bradykinin receptor binding (crude guinea pig ileum membrane)
Conditions: crude ileum membrane of male Hartly strain guinea pigs; 3H-Bradykinin 0.06 nM; room temperature, 60 minutes; read-out: Inhibition of 3H-Bradykinin binding IC50
Method: ^3H-Bradykinin receptor binding
(a) Crude ileum membrane preparation
Male Hartly strain guinea pigs were sacrificed by decapitation. The ileum was removed and homogenized in buffer (50 mM trimethylaminoethanesulfonic acid (TES), 1 mM 1,10-phenanthroline pH 6.8). The homogenate was centrifuged (1000×g, 20 minutes) to remove tissue clumps and the supernatant was centrifuges (100,000×g, 60 minutes) to yield a pellet. The pellet was resuspended in buffer (50 mM TES, 1 mM 1,10-phenanthroline, 140 mg/l bacitracin, 1 mM dithiothreiol, 0.1% bovine serum albumin pH 6.8) and homogenized with a glass-teflon homogenizer to yield suspension which was referred to as crude membrane suspension. The obtained membrane suspension was stored at −80° C. until use.
(b) ^3H-Bradykinin binding to the membrane
The frozen crude membrane suspension was thawed. In binding assays, ^3H-Bradykinin (0.06 nM) and the test compound were incubated with 50 μl of the membrane suspension at room temperature for 60 minutes in a final volume of 250 μl. Separation of receptor-bound from free ^3H-Bradykinin is achieved by immediate filtration under vacuum and washed three times with 5 ml of ice-cold buffer (50 mM Tris-HCl pH 7.5). Non-specific binding was defined as binding in the presence of 0.1 μM Bradykinin. The radioactivity retained on rinsed filters was determined by a liquid-scintillation counter.

| Structure (SMILES) | IC50 [nM] |
| --- | --- |
| CNC(=O)c1ccc(/C=C/C(=O)NCc2ccccc2-c2ccc(C)c(COc3cccc4ccc(C)nc34)c2C)cc1 [40-(6)] | 2.3 |
| CNC(=O)c1ccc(C=CC(=O)NC/C=C\c2ccc(Cl)c(COc3cccc4ccc(C)nc34)c2Cl)cc1OC [50-(1) (hydrochloride), 8-[2,6-Dichloro-3-[(Z)-3-[3-methoxy-4-(methylcarbamoyl)cinnamoylamino]-1-propenyl]benzyloxy]-2-methylquinoline] | 7.4 |
| Cc1nc2c(OCc3c(Cl)ccc(-n4cccc4CNC(=O)/C=C/c4ccc(/C=C/c5ccncc5)nc4)c3Cl)cccn2c1Br [23-(3) (trihydrochloride), 1-(3-(3-bromo-2-methylimidazo[1,2-a]pyridin-8-yloxymethyl)-2,4-dichlorophenyl]-2-[(E)-3-[6-[(E)-2-(pyridin-4-yl)vinyl]pyridin-3-yl]acryloylaminomethyl]pyrrole] | 4.3 |
| CCOC(=O)c1ccc(/C=C/C(=O)NCc2cccn2-c2ccc(Cl)c(COc3cccc4ccc(C)nc34)c2Cl)cn1 [16-(1), 1-[2,4-Dichloro-3-(2-methylquinolin-8-yloxymethyl)phenyl]-2-[(E)-3-(6-ethoxycarbonylpyridin-3-yl)acryloylaminomethyl]pyrrole] | 3.3 |

Now from value to molecule:

| IC50 [nM] | Structure (SMILES) |
| --- | --- |
| 2.6 | Cc1ccc2cccc(OCc3c(Cl)ccc(-n4cccc4CNC(=O)/C=C/c4ccc(/C=C/c5ccncc5)nc4)c3Cl)c2n1 [15 (trihydrochloride), 1-[2,4-Dichloro-3-(2-methylquinolin-8-yloxymethyl)phenyl]-2-[(E)-3-[6-[(E)-2-(pyridin-4-yl)vinyl]pyridin-3-yl]acryloylaminomethyl]pyrrole] |
| 3.2 | CNC(=O)c1ccc(/C=C/C(=O)NCc2cccn2-c2ccc(Cl)c(COc3cccc4c(-n5ccnc5)cc(C)nc34)c2Cl)cc1 [33 (dihydrochloride)] |
| 2.8 | CNC(=O)c1ccc(C=CC(=O)NCc2sccc2-c2ccc(C)c(COc3cccc4ccc(C)nc34)c2C)cc1 [45-(6) (hydrochloride), 3-[2,4-Dimethyl-3-(2-methylquinolin-8-yloxymethyl)-phenyl]-2-[4-(methylcarbamoyl)-cinnamoylaminomethyl]thiophene] |

Tested on: not given
Assay: not given
Conditions: not given

| melting point [°C] | Structure (SMILES) |
| --- | --- |
| 233 to 240 | COc1nc2c(OCc3c(Cl)ccc(-n4cccc4CNC(=O)/C=C/c4ccc(NC(C)=O)nc4)c3Cl)cccc2n1C [Example 21, 2-[(E)-3-(6-acetamidopyridin-3-yl)acryloylaminomethyl]-1-[2,4-dichloro-3-(2-methoxy-1-methyl-1H-benzimidazol-4-yloxymethyl)phenyl]pyrrole] |
| 195 to 197 | Cc1ccc2cccc(OCc3c(Cl)ccc(C(=O)N4CCNCC4)c3Cl)c2n1.Cl.Cl |
| 222 to 225 | CNC(=O)c1ccc(C=CC(=O)NC/C=C\c2ccc(Cl)c(COc3cccc4ccc(C)nc34)c2Cl)cc1OC (as salt: hydrochloride) [50-(1) (hydrochloride), 8-[2,6-Dichloro-3-[(Z)-3-[3-methoxy-4-(methylcarbamoyl)cinnamoylamino]-1-propenyl]benzyloxy]-2-methylquinoline] |

— US6344462B1, “Heterocyclic compounds as bradykinin antagonists” (Fujisawa Pharmaceutical Co., Ltd., priority 1995, dated 2002)
